Marks after values point to notes of the source that are not given here. Where a SMILES comes first, the peptide text is derived from it.
Legend:
[1] = tested on: experimental myocardium infarction in rats; experiment: Experimental myocardium infarction by left coronary artery vasoligation in rats; format: in vivo; details: for Necrosis zone size, % of ventricle mass: 0.05 μg per animal i.p. 1, 3, 5 h after occlusion; for Death rate: 20 animals per group
Experimental: The experiment was conducted on 40 white mongrel rats each weighing 180-200 g. The animals were randomly subdivided into two groups, 20 animals in each. Myocardium infarction (MI) was induced by vasoligation of the left coronary artery. Ala-Glu-Asp-Arg tetrapeptide was administered to the animals intraperitoneally in the dose of 0.05 μg per animal in sterile 0.9% NaCl solution three times—in 1, 3 and 5 hours after coronary occlusion. Rats were decapitated in 6 and 24 hours after the surgery. Animals subjected to the surgery, which intraperitoneally received 0.9% NaCl solution, served as the control. MI zone size was identified gravimetrically. Myocardium fragments were fixed for light and electronic microscopy, part of the material was frozen in liquid nitrogen for biochemical studies.

[2] = tested on: chlorine-calcium arrhythmia in rats; experiment: Chlorine-calcium (CaCl2) arrhythmia in rats; format: in vivo; details: for Death after the first arrhythmogen administration, abs.: 10 animals
Experimental: The experiment was conducted on 60 white mongrel rats with body weight of 180-200 g. The animals were randomly subdivided into 6 groups, each consisting of 10 animals. The rats were narcotized with urethane and received 220 mg/kg of 10% CaCl2 solution. Ala-Glu-Asp-Arg tetrapeptide was administered to the animals intraperitoneally, once, in the doses of 0.05-1.0 μg/kg in sterile 0.9% NaCl solution.

[3] = 0.05 μg per animal i.p., 6 hours
[4] = 0.05 μg per animal i.p., 24 hours

Q: With `C[C@H](N)C(=O)N[C@@H](CCC(=O)O)C(=O)N[C@@H](CC(=O)O)C(=O)N[C@@H](CCCNC(=N)N)C(=O)O` [Tetrapeptide, L-alanyl-L-glutamyl-L-aspartyl-L-arginine] (H-AEDR-OH) as the compound, how does the “Necrosis zone size, % of ventricle mass” value ([1]; 6 hours) read?
A: 38.1 ± 1.8 % of ventricle mass

Q: What about the “Necrosis zone size, % of ventricle mass” value ([1]; 24 hours) of the same compound?
A: 49.6 ± 1.6 % of ventricle mass

Q: And the “Content in the blood serum: CPK” value [1, 3]?
A: 961 ± 52 nmole/s · 1

Q: And the “Content in the blood serum: LDH” value [1, 3]?
A: 309 ± 16 nmole/s · 1

Q: What about the “Content in the blood serum: glucose” value [1, 3] of the same compound?
A: 3.12 ± 0.09 mmol/L

Q: And the “Glycogen content in the myocardium” value [1, 3]?
A: 1.05 ± 0.12 g/kg of the tissue

Q: And the Death rate [1, 3]?
A: 2

Q: What about the “Content in the blood serum: CPK” value [1, 4] of the same compound?
A: 923 ± 38 nmole/s · 1

Q: And the “Content in the blood serum: LDH” value [1, 4]?
A: 201 ± 15 nmole/s · 1

Q: And the “Content in the blood serum: glucose” value [1, 4]?
A: 3.01 ± 0.11 mmol/L

Q: What about the “Glycogen content in the myocardium” value [1, 4] of the same compound?
A: 1.18 ± 0.12 g/kg of the tissue

Q: What about the Death rate [1, 4] of the same compound?
A: 1

Q: What about the “Mortality rate during the first 24 hours after infarction” value ([1]; 0.05 μg per animal i.p., control 45%) of the same compound?
A: 15%

Q: And the “Decrease of glucose content in the blood” value ([1]; acute myocardium ischemia, versus control)?
A: ~1.5 times

Q: What about the “Coefficient of mitochondria energy efficiency” value ([1]; electronograms, 24 hours since beginning of MI, control 41.5±2.4) of the same compound?
A: 93.2±2.3%

Q: What about the “Death after the first arrhythmogen administration, %” value (“Death … %” below) ([2]; 0.05 μg/kg i.p. once) of the same compound?
A: 50%

Q: What about the “Frequency of sinus rhythm restoration after the first CaCl2 administration” value (shortened to “Frequency of sinus rhythm restoration”) ([2]; 0.05 μg/kg i.p. once) of the same compound?
A: 27.0%

Q: And the “Frequency of ventricle fibrillation development in the course of the experiment” value (“Frequency … of the experiment” for short) ([2]; 0.05 μg/kg i.p. once)?
A: 60.3%

Q: And the “Maximum tolerable arrhythmogen dose” value ([2]; 0.05 μg/kg i.p. once)?
A: 220 mg/kg

Q: And the “Death after the first arrhythmogen administration, abs.” value (“Death … abs.” below) ([2]; 0.05 μg/kg i.p. once)?
A: 5

Q: What about the “Death … %” value ([2]; 0.1 μg/kg i.p. once) of the same compound?
A: 50%

Q: What about the “Frequency of sinus rhythm restoration” value ([2]; 0.1 μg/kg i.p. once) of the same compound?
A: 29.6%

Q: What about the “Frequency … of the experiment” value ([2]; 0.1 μg/kg i.p. once) of the same compound?
A: 45.8%

Q: And the “Maximum tolerable arrhythmogen dose” value ([2]; 0.1 μg/kg i.p. once)?
A: 220 mg/kg

Q: What about the “Death … abs.” value ([2]; 0.1 μg/kg i.p. once) of the same compound?
A: 5

Q: What about the “Increase of frequency of heart contractions (FHC)” value ([2]; 0.2 μg/kg and 0.5 μg/kg, bradicardia rats) of the same compound?
A: 12.3-48.6%

Q: And the “Death … %” value ([2]; 0.2 μg/kg i.p. once)?
A: 30%

Q: What about the “Frequency of sinus rhythm restoration” value ([2]; 0.2 μg/kg i.p. once) of the same compound?
A: 49.0* %

Q: What about the “Frequency … of the experiment” value ([2]; 0.2 μg/kg i.p. once) of the same compound?
A: 35.2* %

Q: What about the “Maximum tolerable arrhythmogen dose” value ([2]; 0.2 μg/kg i.p. once) of the same compound?
A: 440 mg/kg

Q: What about the “Death … abs.” value ([2]; 0.2 μg/kg i.p. once) of the same compound?
A: 3

Q: What about the “Death … %” value ([2]; 0.5 μg/kg i.p. once) of the same compound?
A: 40%

Q: And the “Frequency of sinus rhythm restoration” value ([2]; 0.5 μg/kg i.p. once)?
A: 39.5* %

Q: And the “Frequency … of the experiment” value ([2]; 0.5 μg/kg i.p. once)?
A: 39.1* %

Q: What about the “Maximum tolerable arrhythmogen dose” value ([2]; 0.5 μg/kg i.p. once) of the same compound?
A: 440 mg/kg

Q: What about the “Death … abs.” value ([2]; 0.5 μg/kg i.p. once) of the same compound?
A: 4

Q: And the “Death … %” value ([2]; 1.0 μg/kg i.p. once)?
A: 60%

Q: What about the “Frequency of sinus rhythm restoration” value ([2]; 1.0 μg/kg i.p. once) of the same compound?
A: 16.3%

Q: What about the “Frequency … of the experiment” value ([2]; 1.0 μg/kg i.p. once) of the same compound?
A: 43.6%

Q: What about the “Maximum tolerable arrhythmogen dose” value ([2]; 1.0 μg/kg i.p. once) of the same compound?
A: 220 mg/kg

Q: What about the “Death … abs.” value ([2]; 1.0 μg/kg i.p. once) of the same compound?
A: 6

Q: What about the Most efficient dose ([2]; doses 0.05-1.0 μg/kg i.p. tested) of the same compound?
A: 0.0002 mg/kg
